Experimental data taken from patent US12721848B2, “Pharmaceutical composition for preventing or treating graft versus host disease comprising thiamine derivatives” (Kyungpook National University Industry-Academic Cooperation …, priority 2020, dated 2026).

Tests used:
[1] = system: allo-reactive CD4+IFNg+ T cell generation; assay: mixed lymphocyte reaction (GVHD in vitro validation model), flow cytometry; assay type: cell-based, mouse; details: for Amount of generation (%) of CD4+IFNg+ T cells: BALB/c irradiated splenocytes + C57BL6/J CD4+ T cells, 5 days, positive control 37.4, syngeneic control 15.3
Excerpt: A high amount of CD4+IFNg+ T cell generated can be inferred to allow the proliferation of T cells against allogenic antigens, thereby attacking the body organs of a patient. Therefore, a graft versus host disease (GVHD) in vitro validation model was subjected to a mixed lymphocyte reaction to compare the degree of allo-reactive CD4+IFNg+ T cell generation among thiamine derivatives by flow cytometry.
Specifically, BALB/c mice were sacrificed by cervical dislocation, and then the spleens were extracted, followed by erythrocyte lysis using ACK lysing buffer. Thereafter, the isolated spleen cells were irradiated at 2500 cGy.
The positive group was treated with 10, 50, and 100 uM benfotiamine, 1, 5, and 10 uM allithiamine, and 10, 50, and 100 uM fursultiamine to prepare experimental groups.
Thereafter, the cells were cultured in RPMI1640 (10% FBS, 1% penicillin streptomycin) at 37° C. for 5 days, and the cells were separated, followed by flow cytometry, to investigate the degree of CD4+IFNg+ T cell generation.

[2] = system: graft versus host disease (GVHD) model mice
Excerpt: Referring to FIG. 2A, 5-week-old BALB/c male mice were acclimatized for 1 week, irradiated with 800 cGy radiation throughout the body, and then injected with 5×10^6 C57BL/6J-derived bone marrow cells and 1×10^7 splenocytes derived therefrom via IV injection, thereby constructing a GVHD in vivo model (positive control group, Positive). The syngeneic control group (Syngeneic) was constructed in the same manner as above while BALB/c-derived bone marrow cells were selected as the bone marrow cells to be injected.
The fursultiamine administration group (Fur50) was constructed by daily oral gavage of fursultiamine HCl at 50 mg/kg to the GVHD in vivo model.
The treatment effect of fursultiamine was investigated on the constructed experimental groups by measuring the change in weight every 3 days.
On Day 14, the comparison between the amounts of generation of CD4+ T cells and CD4+IFNg+ T cells, which are major factors causing GVHD, was performed in the spleens isolated from the mice.
On Day 14 of inducing the GVHD in vivo model, liver and large intestine tissues were extracted from the mice, fixed in 4% paraformaldehyde for 48 hours, and then embedded in paraffin. The resultant tissues were sliced into 5 μm sections and then subjected to hematoxylin and eosin (H&E) staining. (bar=100 um)

[3] = spleen, Day 14, 50 mg/kg daily oral, in words

SMILES | Amount of generation (%) of CD4+IFNg+ T cells ([1]; 1 μM) | Amount of generation (%) of CD4+IFNg+ T cells ([1]; 5 μM) | Amount of generation (%) of CD4+IFNg+ T cells ([1]; 10 μM) | degree of generation of CD4+IFNg+ T cells compared with the positive control ([1]; at 5 uM or more, concentration dependent) | Amount of generation (%) of CD4+IFNg+ T cells ([1]; 50 μM) | Amount of generation (%) of CD4+IFNg+ T cells ([1]; 100 μM) | degree of generation of CD4+IFNg+ T cells compared with the positive control ([1]; at 50 uM or more, concentration dependent) | infiltration of immune cells in the liver tissue (H&E staining) ([2]; Day 14, 50 mg/kg daily oral, versus positive control group) | degree of infiltration of inflammatory cells into the liver and colon ([2]; GVHD-induced mouse model, summary statement) | change in weight compared with the GVHD in vivo model ([2]; fursultiamine HCl 50 mg/kg daily oral gavage, Day 12 of oral administration) | amount of generation of allogenic CD4+ T cells [2, 3] | amount of generation of allogenic CD4+IFNg+ T cells [2, 3] | Amount of generation of CD4+IFNg+ T cells (%) ([2]; spleen, Day 14, fursultiamine HCl 50 mg/kg daily oral gavage, positive control 18.3, syngeneic control 3.2) | Amount of generation of CD4+ T cells (%) ([2]; spleen, Day 14, fursultiamine HCl 50 mg/kg daily oral gavage, positive control 21.1, syngeneic control 6.9) | degree of generation of CD4+IFNg+ T cells compared with the positive control ([1]; regardless of the concentration (10, 50, 100 uM))
C=CCSS/C(CCO)=C(/C)N(C=O)Cc1cnc(C)nc1N [Allithiamine, allithiamine] | 35.2% | 25.7% | 23.9% | significant reduction | – | – | – | – | – | – | – | – | – | – | –
CC(=C(CCO)SSCC1CCCO1)N(C=O)Cc1cnc(C)nc1N (stereo in doubt) [Fursultiamine, fursultiamine] | – | – | 34.9% | – | 13.6% | 12.5% | significant reduction | reduced | reducing the degree of infiltration | significant recovery | reduced | reduced | 12.6% | 13.4% | –
C/C(=C(\CCOP(=O)(O)O)SC(=O)c1ccccc1)N(C=O)Cc1cnc(C)nc1N [Benfotiamine, benfotiamine] | – | – | 36.8% | – | 43.9% | 40.1% | – | – | – | – | – | – | – | – | no significant difference
